Measured values: US9221765B2, “Inhibition and dispersion of bacterial biofilms with benzimidazole derivatives” (North Carolina State University, priority 2009, dated 2015)
pEC50, pIC50: −log10 of the molar value. Structures can show the parent of a compound that is named as a salt.

Legend:
[1] = system: vancomycin-resistant Enterococcus faecium (VRE); assay: Inhibition of VRE (E. faecium) biofilm formation (crystal violet); assay type: cell-based
Protocol: (§1) A dose-response study was then initiated in which both the IC50 and EC50 value of each compound towards the bacterial strains were determined (Table 1). Here, IC50 is defined as the concentration of compound that inhibits 50% biofilm development while EC50 is defined as the concentration of compound that disperses 50% of a pre-formed biofilm.
(§2) Procedure to Determine the Inhibitory Effect of Test Compounds on E. faecium, MRSA, S. epidermidis, PAO1 and MDRAB Biofilm Formation:
(§3) Inhibition assays were performed by taking an overnight culture of bacterial strain and subculturing it at an OD600 of 0.01 into the necessary media (brain heart infusion for E. faecium, tryptic soy broth with a 0.5% glucose supplement (TSBG) for MRSA, Luria-Bertani (LB) media for MDRAB, Luria-Bertani media without NaCl (LBNS) for PAO1 and tryptic soy broth with a 0.5% glucose supplement and a 3.0% NaCl supplement (TGN) for S. epidermidis. Stock solutions of predetermined concentrations of the test compound were then made in the necessary media. These stock solutions were aliquoted (100 μL) into the wells of the 96-well PVC microtiter plate. Sample plates were then wrapped in GLAD Press n′ Seal® followed by an incubation under stationary conditions for 24 h at 37° C. After incubation, the media was discarded from the wells and the plates were washed thoroughly with water. Plates were then stained with 100 μL of 0.1% solution of crystal violet (CV) and then incubated at ambient temperature for 30 min. Plates were washed with water again and the remaining stain was solubilized with 200 μL of 95% ethanol. A sample of 125 μL of solubilized CV stain from each well was transferred to the corresponding wells of a polystyrene microtiter dish. Biofilm inhibition was quantitated by measuring the OD540 of each well in which a negative control lane wherein no biofilm was formed served as a background and was subtracted out.
as §3, with “2-(2-amino-1H-benzo[d]imidazol-6-ylcarbamoyl)-3,4,5,6-tetrachlorobenzoic acid hydrochloride” for “test compound”, “media. Samples were then doped with 10.0 μM FeSO4 with samples with no test compound to examine effects of 10.0 μM FeSO4 on biofilm formation.” for “media.”

[2] = system: S. epidermidis; assay: Inhibition of S. epidermidis biofilm formation (crystal violet); assay type: cell-based, Staphylococcus epidermidis; conditions: Staphylococcus epidermidis
Protocol: as §1, §2, §3
as §3, with “2-(2-amino-1H-benzo[d]imidazol-6-ylcarbamoyl)-3,4,5,6-tetrachlorobenzoic acid hydrochloride” for “test compound”, “media. Samples were then doped with 10.0 μM FeSO4 with samples with no test compound to examine effects of 10.0 μM FeSO4 on biofilm formation.” for “media.”

[3] = system: MRSA; assay: Dispersion of preformed MRSA biofilm; assay type: cell-based, Staphylococcus aureus; conditions: concentration that disperses 50% of a pre-formed biofilm
Protocol: as §1
(§4) Procedure to Determine the Dispersal Effect of Test Compounds on E. faecium, MRSA and S. epidermidis Preformed Biofilms:
(§5) Dispersion assays were performed by taking an overnight culture of bacterial strain and subculturing it at an OD600 of 0.01 into the necessary media (brain heart infusion for E. faecium, tryptic soy broth with a 0.5% glucose supplement (TSBG) for MRSA and tryptic soy broth with a 0.5% glucose supplement and a 3.0% NaCl supplement (TGN) for S. epidermidis. The resulting bacterial suspension was aliquoted (100 μL) into the wells of a 96-well PVC microtiter plate. Plates were then wrapped in GLAD Press n′ Seal® followed by an incubation under stationary conditions at ambient temperature to establish the biofilms. After 24 h, the media was discarded from the wells and the plates were washed thoroughly with water. Stock solutions of predetermined concentrations of the test compound were then made in the necessary media. These stock solutions were aliquoted (100 μL) into the wells of the 96-well PVC microtiter plate with the established biofilms. Media alone was added to a subset of the wells to serve as a control. Sample Plates were then incubated for 24 h at 37° C. After incubation, the media was discarded from the wells and the plates were washed thoroughly with water. Plates were then stained with 100 μL of 0.1% solution of crystal violet (CV) and then incubated at ambient temperature for 30 min. Plates were washed with water again and the remaining stain was solubilized with 200 μL of 95% ethanol. A sample of 125 μL of solubilized CV stain from each well was transferred to the corresponding wells of a polystyrene microtiter dish. Biofilm dispersion was quantitated by measuring the OD540 of each well in which a negative control lane wherein no biofilm was formed served as a background and was subtracted out.

[4] = system: vancomycin-resistant Enterococcus faecium (VRE); assay: Dispersion of preformed VRE (E. faecium) biofilm; assay type: cell-based; conditions: concentration that disperses 50% of a pre-formed biofilm
Protocol: as §1, §4, §5

[5] = system: S. epidermidis; assay: Dispersion of preformed S. epidermidis biofilm; assay type: cell-based, Staphylococcus epidermidis; conditions: concentration that disperses 50% of a pre-formed biofilm
Protocol: as §1, §4, §5

[6] = Divalent zinc binding via 1H NMR spectroscopy; conditions: 0, 0.5, 1.0 equivalents ZnCl2; DMSO
Protocol: Given this Zn(II)-dependence, the ability of 3 to bind zinc directly was determined to ascertain if the mechanism was potentially occurring via a Zn(II)-binding mechanism. To answer this question, an ^1H NMR binding experiment was performed in which the chemical shifts of 3 were measured in the presence of 0 equivalents, 0.5 equivalents, and 1.0 equivalents ZnCl2. […] As a control, the same experiment was performed with FeSO4.
Procedure to Determine the Divalent Zinc Binding Effects of Test Compounds via ^1H NMR Spectroscopy:
^1H NMR Spectra were obtained of the test compounds in DMSO on a 400 MHz NMR in the absence and in the presence of one equivalent of ZnCl2. 2-(2-amino-1H-benzo[d]imidazol-5-ylcarbamoyl)-3,4,5,6-tetrachlorobenzoic acid hydrochloride was tested at a 228 mM. 2,3,4,5-tetrachloro-6-(phenylcarbamoyl)benzoic acid was tested at 275 mM. 1H-benzo[d]imidazol-2-amine hydrochloride was tested at 649 mM.

Work on `Nc1nc2ccc(NC(=O)c3c(Cl)c(Cl)c(Cl)c(Cl)c3C(=O)O)cc2[nH]1` [Compound 3, 2-(2-amino-1H-benzo[d]imidazol-6-ylcarbamoyl)-3,4,5,6-tetrachlorobenzoic acid hydrochloride] yielded a pIC50 [1] of 5.85, a pIC50 [2] of 6.24 and a pEC50 ([3]; Staphylococcus aureus) of 5.53. For the same molecule, the pEC50 ([3]; hydrochloride) was 5.54, the pEC50 [4] was 4.13 and the pEC50 ([4]; hydrochloride) was 4.12. For the same molecule, the pEC50 ([5]; Staphylococcus epidermidis) was 5.14, the pEC50 ([5]; hydrochloride) was 5.14 and the “zinc binding, change of 1H NMR signals” value [6] was “directly binding ZnCl2”.
